Legend:
Format in all cases: in vivo
Abutilon theophrasti [1] = experiment: Pre-emergence herbicidal action against ABUTH; conditions: visual score after 3 weeks vs untreated controls
Method in brief: (§1)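 Pre-emergence soil-surface spray of formulated compound (WP or EC; 600 to 800 l/ha; 0.2% wetting agent) over seeds sown in sandy loam. After 3 weeks under greenhouse conditions, damage is estimated visually in percent against untreated plants.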

Alopecurus myosuroides [2] = experiment: Pre-emergence herbicidal action against ALOMY; conditions: 80 g/ha; visual score after 3 weeks vs untreated controls
Method in brief: as §1

Amaranthus retroflexus [3] = experiment: Pre-emergence herbicidal action against AMARE; conditions: visual score after 3 weeks vs untreated controls
Method in brief: as §1

Avena fatua [4] = experiment: Pre-emergence herbicidal action against AVEFA; conditions: 80 g/ha; visual score after 3 weeks vs untreated controls
Method in brief: as §1

Echinochloa crus-galli [5] = experiment: Pre-emergence herbicidal action against ECHCG; conditions: 80 g/ha; visual score after 3 weeks vs untreated controls
Method in brief: as §1

Matricaria inodora [6] = experiment: Pre-emergence herbicidal action against MATIN; conditions: visual score after 3 weeks vs untreated controls
Method in brief: as §1

Pharbitis purpurea [7] = experiment: Pre-emergence herbicidal action against PHBPU; conditions: 80 g/ha; visual score after 3 weeks vs untreated controls
Source text: Seeds of monocotyledonous and dicotyledonous weed plants and crop plants are laid out in sandy loam soil in wood-fiber pots and covered with soil. The compounds of the invention, formulated in the form of wettable powders (WP) or as emulsion concentrates (EC), are then applied to the surface of the covering soil in the form of an aqueous suspension or emulsion at a water application rate equivalent to 600 to 800 l/ha, with addition of 0.2% wetting agent. After the treatment, the pots are placed in a greenhouse and kept under good growth conditions for the trial plants. The damage to the test plants is scored visually after a test period of 3 weeks by comparison with untreated controls (herbicidal activity in percent (%): 100% activity=the plants have died, 0% activity=like control plants). […] The tables below illustrate, in an illustrative manner, the post-emergence herbicidal action of the compounds of the invention, the herbicidal activity being stated in percent.

Lolium rigidum = experiment: Pre-emergence herbicidal action against LOLRI; conditions: 80 g/ha
Method in brief: as §1

Setaria viridis [8] = experiment: Pre-emergence herbicidal action against SETVI; conditions: 80 g/ha
Method in brief: as §1

Viola tricolor [9] = experiment: Pre-emergence herbicidal action against VIOTR
Method in brief: as §1

Abutilon theophrasti [10] = experiment: Post-emergence herbicidal action against ABUTH
Method in brief: (§2)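 Greenhouse plants in sandy loam were sprayed at the one-leaf stage, 2 to 3 weeks after sowing, with WP or EC formulations as aqueous suspension or emulsion (600 to 800 l/ha water, 0.2% wetting agent). Visual damage was scored about 3 weeks later versus untreated controls, 0% = like control, 100% = dead.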

Alopecurus myosuroides [11] = experiment: Post-emergence herbicidal action against ALOMY
Method in brief: as §2

Amaranthus retroflexus [12] = experiment: Post-emergence herbicidal action against AMARE; conditions: visual assessment about 3 weeks after treatment
Method in brief: as §2

Echinochloa crus-galli [13] = experiment: Post-emergence herbicidal action against ECHCG; conditions: 20 g/ha, visual assessment about 3 weeks after treatment
Method in brief: as §2

Matricaria inodora [14] = experiment: Post-emergence herbicidal action against MATIN; conditions: visual assessment about 3 weeks after treatment
Method in brief: as §2

Setaria viridis [15] = experiment: Post-emergence herbicidal action against SETVI; conditions: visual assessment about 3 weeks after treatment
Method in brief: as §2

Veronica persica [16] = experiment: Post-emergence herbicidal action against VERPE; conditions: 20 g/ha, visual assessment about 3 weeks after treatment
Method in brief: as §2

Viola tricolor [17] = experiment: Post-emergence herbicidal action against VIOTR
Method in brief: as §2

Polygonum convolvulus = experiment: Pre-emergence herbicidal action against POLCO; conditions: 80 g/ha
Method in brief: as §1

Veronica persica [18] = experiment: Pre-emergence herbicidal action against VERPE; conditions: 80 g/ha
Method in brief: as §1

Avena fatua [19] = experiment: Post-emergence herbicidal action against AVEFA; conditions: 20 g/ha, visual assessment about 3 weeks after treatment
Method in brief: as §2

Pharbitis purpurea [20] = experiment: Post-emergence herbicidal action against PHBPU; conditions: visual assessment about 3 weeks after treatment
Method in brief: as §2

Digitaria sanguinalis = experiment: Post-emergence herbicidal action against DIGSA
Method in brief: as §2

Row | Compound | Pre-emergence action against ABUTH (Abutilon theophrasti [1]; 20 g/ha) [%] | Pre-emergence action against ABUTH (Abutilon theophrasti [1]; 80 g/ha) [%] | Pre-emergence action against ALOMY (Alopecurus myosuroides [2]) [%] | Pre-emergence action against AMARE (Amaranthus retroflexus [3]; 20 g/ha) [%] | Pre-emergence action against AMARE (Amaranthus retroflexus [3]; 80 g/ha) [%] | Pre-emergence action against AVEFA (Avena fatua [4]) [%] | Pre-emergence action against ECHCG (Echinochloa crus-galli [5]) [%] | Pre-emergence action against MATIN (Matricaria inodora [6]; 20 g/ha) [%] | Pre-emergence action against MATIN (Matricaria inodora [6]; 80 g/ha) [%] | Pre-emergence action against PHBPU (Pharbitis purpurea [7]) [%] | Pre-emergence action against LOLRI (Lolium rigidum) [%] | Pre-emergence action against SETVI (Setaria viridis [8]) [%] | Pre-emergence action against VIOTR (Viola tricolor [9]; 80 g/ha) [%] | Post-emergence action against ABUTH (Abutilon theophrasti [10]; 5 g/ha) [%] | Post-emergence action against ABUTH (Abutilon theophrasti [10]; 20 g/ha) [%] | Post-emergence action against ALOMY (Alopecurus myosuroides [11]; 5 g/ha) [%] | Post-emergence action against ALOMY (Alopecurus myosuroides [11]; 20 g/ha) [%] | Post-emergence action against AMARE in % (Amaranthus retroflexus [12]; 5 g/ha) [%] | Post-emergence action against AMARE in % (Amaranthus retroflexus [12]; 20 g/ha) [%] | Post-emergence action against MATIN in % (Matricaria inodora [14]; 20 g/ha) [%] | other results
1 | CCN(C(=O)c1c(C(F)F)ccc(C(=O)Nc2nnnn2C)c1Cl)C1CC1 [Example 1-167] | 100 | 100 | 100 | 100 | 100 | 90 | 90 | 80 | 100 | 80 | 90 | 100 | 100 | 90 | 90 | 90 | 90 | 100 | 100 | 80 | Pre-emergence action against VIOTR (Viola tricolor [9]; 20 g/ha): 90%; Post-emergence action against ECHCG in % (Echinochloa crus-galli [13]): 80%; Post-emergence action against SETVI in % (Setaria viridis [15]; 20 g/ha): 100%; Post-emergence action against VERPE in % (Veronica persica [16]): 90%; Post-emergence action against VIOTR in % (Viola tricolor [17]; 5 g/ha): 80%; Post-emergence action against VIOTR in % (Viola tricolor [17]; 20 g/ha): 90%
2 | CCN(CC)C(=O)c1c(C(F)F)ccc(C(=O)Nc2nnnn2C)c1Cl [Example 1-166] | 100 | 100 | 90 | 100 | 100 | 90 | 100 | 90 | 90 | 90 | 80 | 100 | 100 | 80 | 90 | 80 | 80 | 100 | 100 | 90 | Pre-emergence action against POLCO (Polygonum convolvulus): 80%; Pre-emergence action against VERPE (Veronica persica [18]): 100%; Post-emergence action against AVEFA in % (Avena fatua [19]): 80%; Post-emergence action against MATIN in % (Matricaria inodora [14]; 5 g/ha): 80%; Post-emergence action against PHBPU in % (Pharbitis purpurea [20]; 5 g/ha): 90%; Post-emergence action against PHBPU in % (Pharbitis purpurea [20]; 20 g/ha): 90%; Post-emergence action against DIGSA in % (Digitaria sanguinalis; 5 g/ha): 90%; Post-emergence action against DIGSA in % (Digitaria sanguinalis; 20 g/ha): 90%; Post-emergence action against SETVI in % (Setaria viridis [15]; 5 g/ha): 80%; Post-emergence action against SETVI in % (Setaria viridis [15]; 20 g/ha): 100%; Post-emergence action against VERPE in % (Veronica persica [16]): 80%; Post-emergence action against VIOTR in % (Viola tricolor [17]; 20 g/ha): 80%
